In patent US20210139507A1, “FUSED PYRIDINES WHICH ACT AS INHIBITORS OF H PGDS” (GlaxoSmithKline Intellectual Property Development Limited, priority 2017, published 2021):

Assays:
male mdx mice = assay: In vivo assay for functional response to muscle injury (eccentric contraction-induced muscle fatigue); set-up: species or system mouse; conditions: 7 months of age, PO 0.1, 1 and 10 mg/kg QD beginning 10 min prior to challenge, versus vehicle, FIG. 1
Text: Under anesthesia, the right hind limb of a mouse is restrained at the knee and the foot attached to a motorized footplate/force transducer. Needle electrodes are inserted into the upper limb, either side of the sciatic nerve and a current sufficient to elicit a maximal muscle contraction is applied. Muscle tension is produced by moving the footplate to lengthen the plantarflexor muscles while the limb is under maximal stimulation. This is repeated 60 times to fatigue the muscles of the lower limb. Anesthesia, limb immobilization and limb stimulation are then repeated at regular intervals to measure maximal isometric force in the recovering limb. 7 to 9 animals are tested for each test condition.

[1] = biological target: T1, hematopoietic prostaglandin D synthase (H-PGDS) (Homo sapiens, UniProt O60760); assay: H-PGDS RapidFire High Throughput Mass Spectrometry Assay; assay type: biochemical; conditions: conversion of PGH2 to PGD2 by human H-PGDS, 10 nM enzyme; for IC50: mean pIC50, read-out: Potency Range (mean pIC50) (converted)
T1 construct: Full length human H-PGDS cDNA (Invitrogen Ultimate ORF IOH13026) was amplified by PCR; 6-His (N); TEV protease cleavage site (N); made in house; host or cells: E. coli BL21 (DE3*), vector pET22b+
T1 sequence (O60760 whole entry): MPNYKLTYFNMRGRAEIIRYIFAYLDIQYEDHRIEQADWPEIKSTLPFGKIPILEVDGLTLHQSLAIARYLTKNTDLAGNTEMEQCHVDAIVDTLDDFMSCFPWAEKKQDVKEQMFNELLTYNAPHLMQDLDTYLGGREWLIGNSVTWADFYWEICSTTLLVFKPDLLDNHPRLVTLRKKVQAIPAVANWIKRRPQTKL
Method: The H-PGDS RapidFire™ mass spectrometric assay monitors conversion of prostaglandin H2 (PGH2) to prostaglandin D2 (PGD2) by hematopoietic prostaglandin D synthase (H-PGDS). In the assay format described here, the substrate (PGH2) is formed in situ by the action of cyclooxygenase-2 on arachidonic acid. This first step is set up to be fast, and generates a burst of PGH2 at ˜10 μM. The PGH2 is then further converted to PGD2 by the H-PGDS enzyme. […] Plates are then read on the RapidFire™ high throughput solid phase extraction system (Agilent) which incorporates a solid phase extraction step coupled to a triple quadrupole mass spectrometer (AB SCIEX). Relative levels of PGD2 and PGF2α, which acts as a surrogate for substrate, are measured and a percent conversion calculated. Inhibitors are characterized as compounds which lower the conversion of PGH2 to PGD2.
Full length human H-PGDS cDNA (Invitrogen Ultimate ORF IOH13026) was amplified by PCR with the addition of a 5′ 6-His tag and TEV protease cleavage site. The PCR product was digested with NdeI and XhoI and ligated into pET22b+ (Merck Novagen®). Expression was carried out in E. coli strain BL21 (DE3*) using auto-induction Overnight Express™ Instant TB medium (Merck Novagen®) supplemented with 1% glycerol. The culture was first grown at 37° C. and the temperature was reduced to 25° C. when OD600 reached 2.0. Cells were harvested by centrifugation after a further 18 hours. 10 g of E. coli cell pellet was suspended to a total volume of 80 mL in lysis buffer (20 mM Tris-Cl pH 7.5, 300 mM NaCl, 20 mM imidazole, 5 mM β-mercaptoethanol, 10% glycerol). 1 mg/mL protease inhibitors (Protease Inhibitor Cocktail Set III, Merck Calbiochem®) and 1 mg/mL lysozyme were added to the cell suspension. The suspension was then sonicated for 5 min (Ultrasonic Processor VCX 750, Cole-Parmer Instrument Co.) with a micro probe (50% amplitude, 10 sec on/off) and then centrifuged at 100,000 g for 90 minutes (at 4° C.). The supernatant was loaded onto a Ni-NTA HiTrap column (5 mL, GE Healthcare, pre-equilibrated in lysis buffer). The column was washed with 10 column volumes of lysis buffer and eluted with lysis buffer containing 500 mM imidazole. The pooled protein peak fractions were concentrated using a 10 kDa centrifugal filter at 3500 g and 4° C. (Amicon Ultra-15 centrifugal filter unit with Ultracel-10 membrane from Millipore). Further purification of the concentrated protein was carried out using gel filtration chromatography on a HiLoad 26/600 Superdex75 preparative grade column (GE Healthcare Life Sciences) using 50 mM Tris pH 7.5, 50 mM NaCl, 1 mM dithiothreitol, 1 mM MgCl2. Fractions containing the protein were pooled, concentrated as described above, and stored at −80° C.
The full length human COX-2 gene (accession number L15326) was amplified by PCR to generate an EcoRI-Hindi 11 fragment containing an in-frame FLAG tag. This was subcloned into pFastBac 1 (Invitrogen). The COX-2 FLAG plasmid was recombined into the baculovirus genome according to the BAC-to-BAC protocol described by Invitrogen. Transfection into Spodoptera frugiperda (Sf9) insect cells was performed using Cellfectin (Invitrogen), according to the manufacturer's protocol. Super Sf9 cells were cultured in EX420 media (SAFC Biosciences) to a density of approximately 1.5×10^6 cells/mL within a wave bioreactor. Recombinant virus was added at a Multiplicity of Infection (MOI) of 5 and the culture was allowed to continue for 3 days. Cells were harvested using a continuous feed centrifuge run at 2500 g at a rate of approximately 2 L/min with cooling. The resultant cell slurry was re-centrifuged in pots (2500 g, 20 min, 4° C.) and the cell paste was stored at −80° C. 342 g of cell paste was re-suspended to a final volume of 1600 mL in a buffer of 20 mM Tris-Cl pH 7.4, 150 mM NaCl, 0.1 mM EDTA, 1.3% w/v n-octyl-β-D-glucopyranoside containing 20 Complete EDTA-free Protease Inhibitor Cocktail tablets (Roche Applied Science). […]

## CC(C)(O)[C@H]1CC[C@H](NC(=O)c2cnc3nc(C4CC4)sc3c2)CC1 [Example 8]
Male mdx mice
  kinetics of recovery of maximal isometric torque after eccentric contraction challenge: exhibited an acceleration in the kinetics of recovery
[1]
  IC50: 10 to 79.4 nM

## CC(C)c1nc2ncc(C(=O)N[C@H]3CC[C@H](C(C)(C)O)CC3)cc2s1 [Example 30, N-(trans-4-(2-Hydroxypropan-2-yl)cyclohexyl)-2-isopropylthiazolo[4,5-b]pyridine-6-carboxamide]
[1]
  IC50: 100 to 1000 nM

## Cn1nnnc1N1CCC(NC(=O)c2cnc3nc(C4CC4)sc3c2)CC1 [Example 31, 2-Cyclopropyl-N-(1-(1-methyl-1H-tetrazol-5-yl)piperidin-4-yl)thiazolo[4,5-b]pyridine-6-carboxamide]
[1]
  IC50: 100 to 1000 nM

## CC(C)(O)[C@H]1CC[C@H](NC(=O)c2cnc3nc(N4CCCC4)sc3c2)CC1 [Example 33, N-(trans-4-(2-Hydroxypropan-2-yl)cyclohexyl)-2-(pyrrolidin-1-yl)thiazolo[4,5-b]pyridine-6-carboxamide]
[1]
  IC50: 100 to 1000 nM

## C[C@H]1CCN1c1nc2ncc(C(=O)N[C@H]3CC[C@H](C(C)(C)O)CC3)cc2s1 [Example 34, N-(trans-4-(2-Hydroxypropan-2-yl)cyclohexyl)-2-((S)-2-methylazetidin-1-yl)thiazolo[4,5-b]pyridine-6-carboxamide]
[1]
  IC50: 10 to 79.4 nM

## CN(c1nc2ncc(C(=O)N[C@H]3CC[C@H](C(C)(C)O)CC3)cc2s1)C1CC1 [Example 35, 2-(Cyclopropyl(methyl)amino)-N-(trans-4-(2-hydroxypropan-2-yl)cyclohexyl)thiazolo[4,5-b]pyridine-6-carboxamide]
[1]
  IC50: 100 to 1000 nM

## CC(C)(O)[C@H]1CC[C@H](NC(=O)c2cnc3nc(N(C4CC4)C4CC4)sc3c2)CC1 [Example 36, 2-(Dicyclopropylamino)-N-(trans-4-(2-hydroxypropan-2-yl)cyclohexyl)thiazolo[4,5-b]pyridine-6-carboxamide]
[1]
  IC50: 1260 to 10000 nM

## CC(C)N(c1nc2ncc(C(=O)N[C@H]3CC[C@H](C(C)(C)O)CC3)cc2s1)C(C)C [Example 37, 2-(Diisopropylamino)-N-(trans-4-(2-hydroxypropan-2-yl)cyclohexyl)thiazolo[4,5-b]pyridine-6-carboxamide]
[1]
  IC50: 1260 to 10000 nM

## CN(c1nc2ncc(C(=O)N[C@H]3CC[C@H](C(C)(C)O)CC3)cc2s1)C(C)(C)C [Example 38, 2-(tert-Butyl(methyl)amino)-N-(trans-4-(2-hydroxypropan-2-yl)cyclohexyl)thiazolo[4,5-b]pyridine-6-carboxamide]
[1]
  IC50: 100 to 1000 nM

## CSc1nc2ncc(C(=O)N[C@H]3CC[C@H](C(C)(C)O)CC3)cc2s1 [Example 39, N-((trans)-4-(2-Hydroxypropan-2-yl)cyclohexyl)-2-(methylthio)thiazolo[4,5-b]pyridine-6-carboxamide]
[1]
  IC50: 10 to 79.4 nM

## COc1nc2ncc(C(=O)N[C@H]3CC[C@H](C(C)(C)O)CC3)cc2s1 [Example 40, N-((trans)-4-(2-Hydroxypropan-2-yl)cyclohexyl)-2-methoxythiazolo[4,5-b]pyridine-6-carboxamide]
[1]
  IC50: 100 to 1000 nM

## N-(trans-4-(2-Hydroxypropan-2-yl)cyclohexyl)-2-((1S,2R)-2-methylcyclopropyl)thieno[3,2-b]pyridine-6-carboxamide and N-(trans-4-(2-hydroxypropan-2-yl)cyclohexyl)-2-((1R,2S)-2-methylcyclopropyl)thieno[3,2-b]pyridine-6-carboxamide [Example 10]
[1]
  Potency Range (mean pIC50): *** (*** = pIC50 7.1-8.0)
